Test: Stability of [99mTc(CO)3(OH2)3]+ prepared with the KF kit
Assay type: physicochemical
Settings: prepared in the presence of KF
Method: Commercially available kits contain sodium tartrate to prevent premature decomposition of [^99mTc(CO)3(OH2)3]^+. Thinking that the chelate was interfering with the fluoride mediated complexation reaction, a kit in which KF was substituted for tartrate was prepared.

In the case of [^99mTc(CO)3(OH2)3]^+, the time stable is reported as “greater than 6 h”.

From US20060062725A1, “Methods for preparing metal-carborane complexes for radioimaging and radiotherapy” (priority 2004, published 2006)
